This note sets out measurements from the Deep4Chem optical property database.

A short description of the data set: solvent given as SMILES.

For `CC[N+](CC)=c1ccc2c(-c3ccccc3C(=O)O)c3cc4c(-c5ccccc5C(=O)O)c5ccc(=[N+](CC)CC)cc-5oc4cc3oc-2c1`, the absorption maximum (in ClC(Cl)Cl) came out at 598 nm.

The compound `O=C1c2ccccc2C2=Nc3ccc4ccccc4[n+]3[B-](F)(F)N12` returned an absorption maximum (in ClCCl) of 387 nm.

As to `Cc1c2ccncc2c(C)c2c1[nH]c1ccccc12`, the absorption maximum (in C1CCCCC1) worked out at 290 nm; the absorption maximum (in C1CCOC1) is listed as 293.3 nm; the absorption maximum (in C1COCCO1) stood at 292.5 nm; the absorption maximum (in CC#N) was 291.5 nm; the absorption maximum (in CC(C)(C)O) is listed as 294.5 nm; the absorption maximum (in CC(C)O) is 294.5 nm. Besides, the absorption maximum stood at 294.5 nm (in CCC(C)(C)O); 289.5 nm (in CCCCCC); 295 nm (in CCCCO); 294 nm (in CCO); 291.5 nm (in CCOC(C)=O); 291.5 nm (in CCOCC). In addition, the absorption maximum reads like this: (in CN(C)C=O) 293.5 nm; (in CO) 294 nm; (in CS(C)=O) 295 nm; (in Cc1ccccc1) 293 nm.

`COC(=O)CNC(=O)CCNc1cccc2ccccc12` returned an absorption maximum (in CCO) of 330 nm.

Turning to `CN(C)c1ccc(-c2ccc(-c3ccc(N(C)C)cc3)c3nc(-c4ccccc4)c(-c4ccccc4)nc23)cc1`, the absorption maximum (in ClC(Cl)Cl) is recorded as 443 nm.

`F[B-]1(F)OC(c2ccccc2)=CC(c2ccccc2)=[O+]1`: the absorption maximum is, setting by setting: (in CC#N) 376 nm; (in ClC(Cl)(Cl)Cl) 375 nm.

Under “in CC(=O)O”, `Cc1cc(Br)cn(Cn2cccc(C)c2=O)c1=N` registered an absorption maximum of 310 nm.

`CCCCN(CCCC)c1ccc(/C=C/c2ccc3nc(/C=C/c4ccc(N(C)C)cc4)c(=O)n(CCC)c3c2)cc1` gave an absorption maximum (in C1COCCO1) of 481 nm, an absorption maximum (in CC#N) of 488 nm and an absorption maximum (in ClCCl) of 494 nm.

Take `CON(C)C(=O)c1ccc(/C=C/c2ccc(/C=C/c3ccc(C(=O)N(C)OC)cc3)cc2)cc1`: the absorption maximum (in c1ccccc1) is recorded as 368 nm.
